In patent publication US20240400986A1, “MEMBRANE BOUND COMPOSITIONS AND METHODS RELATING TO SAME” (FLAGSHIP PIONEERING INNOVATIONS VII, LLC, priority 2021, published 2024):
Read-outs that look alike come from different tables or passages of the source.

Experiments:
[1] = system: neuronal cell line derived from human neuroblastoma
[2] = system: neuronal cell line derived from human neuroblastoma; test: Small molecule compound screen of gigasome production in neuronal monocultures; conditions: for fold induction at 0.01 µM / fold induction at 0.1 µM / fold induction at 1 µM / fold induction at 10 µM: Homo sapiens, read-out: Fold Change of Gigasomes Produced vs. DMSO; for fold induction at 0.01 µM / fold induction at 0.1 µM / fold induction at 1 µM / fold induction at 10 µM / downregulation of gigasome production: 24 h; for Number of Gigasomes Produced / Fold Change of Gigasomes Produced vs. DMSO / downregulation of gigasome production: neuronal cells; for Number of Gigasomes Produced / Fold Change of Gigasomes Produced vs. DMSO: 24 hours; for downregulation of gigasome production: doses 10-10,000 nM
[3] = system: cardiomyocytic cell line derived from human ventricular heart tissue; test: Small molecule compound screen of gigasome production in cardiomyocytic monocultures; conditions: cardiomyocytes;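 further: gigasomes shed into the culture medium were imaged by confocal microscopy and counted as round particles lacking nuclear signal, extrapolated to the whole well, fold change is relative to DMSO vehicle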
[4] = Table 23 (down-regulators), dose 10 nM
[5] = Table 23 (down-regulators), dose 100 nM
[6] = Table 23 (down-regulators), dose 1000 nM
[7] = Table 23 (down-regulators), dose 10000 nM
[8] = neuronal cells, dose 10 nM, 24 hours
[9] = neuronal cells, dose 100 nM, 24 hours
[10] = neuronal cells, dose 1000 nM, 24 hours
[11] = Table 22, dose 100 nM, 24 hours
[12] = neuronal cells, dose 10000 nM, 24 hours

| SMILES | fold induction at 0.01 µM [2] | fold induction at 0.1 µM [2] | fold induction at 1 µM [2] | Number of Gigasomes Produced ([2]; dose 10 nM) | Number of Gigasomes Produced ([2]; dose 100 nM) | Number of Gigasomes Produced ([2]; dose 1000 nM) | Fold Change of Gigasomes Produced vs. DMSO ([2]; dose 100 nM) | Fold Change of Gigasomes Produced vs. DMSO ([2]; dose 1000 nM) | Number of Gigasomes Produced ([2]; dose 10000 nM) | Viability [1, 8] | Viability [1, 9] | Viability [1, 10] | other results |
| --- | --- | --- | --- | --- | --- | --- | --- | --- | --- | --- | --- | --- | --- |
| Cc1ncc(-c2ccnc(Nc3ccc(S(C)(=O)=O)cc3)n2)n1C(C)C [AZD-5438] | 1.5 to 1.75 | 1.25 to 1.5 | 1 to 1.25 | 45-55 | 35-45 | 35-45 |  |  |  |  |  |  | Viability ([1]; human, 24 h, 10 nM): 100%; Viability ([1]; human, 24 h, 100 nM): 100%; Viability ([1]; human, 24 h, 1000 nM): 100% |
| COC(=O)C1=C(C)NC(C)=C([N+](=O)[O-])C1c1ccccc1C(F)(F)F (stereo not shown) [Bay K 8644] |  |  |  | 35-45 | 35-45 | 35-45 | 1.25-1.5 | 1.25-1.5 |  |  |  |  | Fold Change of Gigasomes Produced vs. DMSO [3, 4]: 0.75-1.0; Number of Gigasomes Produced [3, 4]: >150; Fold Change of Gigasomes Produced vs. DMSO [3, 5]: 0.5-0.75; Number of Gigasomes Produced [3, 5]: 120-135; Fold Change of Gigasomes Produced vs. DMSO [3, 6]: 0.75-1.0; Number of Gigasomes Produced [3, 6]: 105-120; Fold Change of Gigasomes Produced vs. DMSO [3, 7]: 0.25-0.5; Number of Gigasomes Produced [3, 7]: 75-90; Fold Change of Gigasomes Produced vs. DMSO ([2]; dose 10 nM): 1.25-1.5 |
| C=C(C)[C@@H]1CC[C@]2(C(=O)O)CC[C@]3(C)[C@H](CC[C@@H]4[C@@]5(C)CC[C@H](O)C(C)(C)[C@@H]5CC[C@]43C)[C@@H]12 [Betulinic acid] | 0.5 to 0.75 | 1.25 to 1.5 |  | <35 | 55-65 |  |  |  | 55-65 |  |  |  | Viability ([1]; human, 24 h, 10 nM): 100%; Viability ([1]; human, 24 h, 100 nM): 100%; Viability ([1]; human, 24 h, 10000 nM): 100%; fold induction at 10 µM [2]: 1.5 to 1.75 |
| O=C1CSC(c2ccccc2Cl)c2cc(Cl)ccc2N1 (stereo not shown) [CGP37157, reference compound] |  |  |  |  |  |  |  |  |  |  |  |  | Fold Change of Gigasomes Produced vs. DMSO [3, 4]: 0.75-1.0; Number of Gigasomes Produced [3, 4]: 120-135; Fold Change of Gigasomes Produced vs. DMSO [3, 5]: 0.75-1.0; Number of Gigasomes Produced [3, 5]: 105-120; Fold Change of Gigasomes Produced vs. DMSO [3, 6]: 0.25-0.5; Number of Gigasomes Produced [3, 6]: 50-75; Fold Change of Gigasomes Produced vs. DMSO [3, 7]: 0.25-0.5; Number of Gigasomes Produced [3, 7]: 50-75; downregulation of gigasome production ([3]; doses 10-10,000 nM, 24 h): dose-dependent downregulation |
| O=C(c1ccc2nccnc2c1)N1CCCCC1 [CX516] | 0.75 to 1 | 1.25 to 1.5 | 1 to 1.25 | <35 | 45-55 | 35-45 |  |  |  | 100% | 100% | 100% |  |
| C[C@H](NC(=O)Cc1cc(F)cc(F)c1)C(=O)N[C@H](C(=O)OC(C)(C)C)c1ccccc1 [DAPT] |  |  |  |  |  |  |  |  |  |  |  |  | Fold Change of Gigasomes Produced vs. DMSO ([3]; Table 22, dose 10 nM, 24 hours): 1.0-1.25; Number of Gigasomes Produced ([3]; Table 22, dose 10 nM, 24 hours): 200-225; Fold Change of Gigasomes Produced vs. DMSO [3, 11]: 1.25-1.5; Number of Gigasomes Produced [3, 11]: 250-275 |
| CC1=NS(=O)(=O)c2cc(Cl)ccc2N1 [Diazoxide] |  | 1.5 to 1.75 | 1.25 to 1.5 |  | 45-55 | 35-45 |  |  | 35-45 |  |  |  | Viability ([1]; human, 24 h, 100 nM): 100%; Viability ([1]; human, 24 h, 1000 nM): 100%; Viability ([1]; human, 24 h, 10000 nM): 100%; fold induction at 10 µM [2]: 1 to 1.25 |
| COC(=O)c1ccccc1NC(=O)c1ccc(F)cc1 [EXO1, reference compound] |  |  |  | 35-40 | 20-25 | 10-15 | 0.5-0.75 | 0.25-0.5 | 10-15 | 100% | 100% | 100% | Viability [1, 12]: 100%; Fold Change of Gigasomes Produced vs. DMSO ([2]; dose 10 nM): 0.75-1.0; Fold Change of Gigasomes Produced vs. DMSO ([2]; dose 10000 nM): 0.25-0.5; downregulation of gigasome production [2]: dose-dependent downregulation |
| CCCn1cnc2c(NCc3ccc(C)s3)nc(N[C@H](CC)CO)nc21 [GV-58, reference compound] |  |  |  | 25-30 | 20-25 | 20-25 | 0.75-1.0 | 0.75-1.0 | 10-15 | 100% | 100% | 100% | Viability [1, 12]: >75%; Fold Change of Gigasomes Produced vs. DMSO ([2]; dose 10 nM): 0.75-1.0; Fold Change of Gigasomes Produced vs. DMSO ([2]; dose 10000 nM): 0.25-0.5; downregulation of gigasome production [2]: dose-dependent downregulation |
| O=C(/C=C/c1ccc(/C=C/C(=O)Nc2ccc(C3=NCCN3)cc2)cc1)Nc1ccc(C2=NCCN2)cc1 [GW4869, reference compound] |  |  |  | 30-35 | 35-40 | 15-20 | 0.75-1.0 | 0.25-0.5 | 5-10 |  |  |  | Fold Change of Gigasomes Produced vs. DMSO ([2]; dose 10000 nM): 0.25-0.5; downregulation of gigasome production [2]: dose-dependent downregulation |
| CCN(CCO)CCCC(C)Nc1ccnc2cc(Cl)ccc12 (stereo not shown) [Hydroxychloroquine] | 1 to 1.25 | 0.75 to 1 | 0.75 to 1 | 30-35 | 20-25 | 25-30 |  |  | 20-25 | 100% | 100% | >75% | Viability [1, 12]: >75%; fold induction at 10 µM [2]: 0.75 to 1 |
